Measurements published in US11370822B2, “Self-assembling peptide for activating human mast cells” (The Governors of the University of Alberta, priority 2017, dated 2022).
Read-outs that look alike come from different tables or passages of the source.

Legend:
LAD2 cells [1] = experiment: Cell viability analysis using XTT assay
Description: (§1) LAD2 cells were suspended in culture medium (50 μl, 1.0×10^6 cells/ml) and placed on top of 50 μl of hydrogel matrix or culture medium solution. After an 4 h or 24 h incubation, cell viability was measured using a 2,3-bis-(2-methoxy-4-nitro-5-sulfophenyl)-2H-tetrazolium-5-carboxanilide (XTT) proliferation kit (Roche Molecular Biochemicals, Indianapolis, Ind., USA), according to the manufacturer's supplied instructions. To facilitate a uniform distribution of color throughout the hydrogel matrix, 50 μl of DMSO was added into each well prior to analysis.

LAD2 cells [2] = system: LAD2 cells
Description: as §1

TPSAB1 (tryptase) mRNA = experiment: In vitro activation of mast cells in human skin, ddPCR for TPSAB1 expression; conditions: human skin without epidermis (NSE), 4 h; 10 μM PAMP-12, pure (RADA)4 matrix or matrix with 20% w/w (RADA)4-GG-(PAMP-12); NS average taken as 100
From the text: Human skin was harvested from abdominoplasty surgical discard specimens obtained following written informed consent as approved by the University of Alberta research ethics board. All tissue was from healthy non-smokers in their 30s. Human skin was separated from the underlying adipose tissue using a 15 blade scalpel. The epidermis was then removed using a […] dermatome (Integra LifeSciences Corporation, Cincinnati, Ohio) set to 0.25 mm thickness. The deepithelialized dermis was then divided into multiple pieces 1 cm^2 using sharp surgical scissors. Control or active hydrogel matrix (100 μl) was then layered onto the exposed surface of the dermis. […] For some groups, PBS and PAMP-12 PBS solution were used as negative and positive control. Following this, tissue pieces were removed and snap frozen in liquid nitrogen and stored at -80° C. until further processing. […] To obtain the absolute quantity of TPSAB1 transcripts, ddPCR (QX100, Bio-Rad, Hercules, Calif.) was employed using 5 ng of each cDNA sample and ddPCR supermix for the specific probes (Bio-Rad) according to manufacturer's protocols. […] QuantaSoft Software (Bio-Rad) was employed to analyze ddPCR results, and the absolute concentration of TPSAB1 transcripts in each sample determined by ddPCR was divided by the ACTB transcripts and presented as percentage based on normal skin samples (NS average taken as 100).

LAD2 cells [3] = experiment: β-hexosaminidase (β-hex) release assay, peptide solutions; assay type: cell-based, human; conditions: 30 min
Description: LAD2 (Laboratory of Allergic Diseases 2) human mast cells were incubated in StemPro-34 SFM medium (Life Technologies, Rockville, Md.) supplemented with 2 mM L-glutamine, 100 I/ml penicillin, 50 μg/ml streptomycin, 100 ng/ml recombinant human SCF (Peprotech, Rocky Hill, N.J.). Cells were maintained at 0.1×10^6 cells/ml at 37° C. and 5% CO2. Cell suspensions were isolated via centrifugation (200 g, 5 min, at room temperature) and media was replaced every 3-7 days. For each well, 0.25×10^5 LAD2 cells were washed and resuspended in 90 μl HEPES buffer (10 mM, with 0.4% BSA, pH 7.4), and activated by adding 10 μl peptide solutions (PAMP-12 […], (RADA)4 (SEQ ID NO: 1) and (RADA)4-GG-(PAMP-12) (SEQ ID NO: 2)) in PBS (1×, pH 7.4) for 30 min at 37° C., the final concentrations of peptide are 0, 0.01, 0.1, 1, 10, 20, 50, 100 μM respectively. β-hex release was quantified through analysis of the hydrolysis of p-nitrophenyl N-acetyl-b-D-glucosamide (Sigma Aldrich, Oakville, ON, Canada) in 0.1 M sodium citrate buffer (pH 4.5) for both the supernatant and in total cell lysates solubilized with 0.01% Triton X-100 for 90 min at 37° C. The reaction was stopped by adding glycine buffer (pH 10.7). Read absorbance at 405 nm with reference filter at 620 nm. The percent-age of β-hex released into the supernatant was calculated by the β-hex contents of supernatant and cell lysate.

LAD2 cells [4] = experiment: β-hex release assay, co-culture with well insert (0.2 μm pore size filter); assay type: cell-based, human; conditions: 30 min
Description: To evaluate the immobilization effect of (RADA)4-GG-(PAMP-12) (SEQ ID NO: 2) in the matrices. As shown in FIG. 6 (A), 0.25×10^5 LAD2 cells in 100 μl HEPES buffer (10 mM, with 0.4% BSA, pH 7.4) were co-incubated with well inserts that contain 50 μl of self-assembling matrix (20% and 100% w/w of (RADA)4-GG-(PAMP-12) (SEQ ID NO: 2)) or PAMP-12 (SEQ ID NO: 3) solution in HEPES buffer (10 mM, with 0.4% BSA, pH 7.4) with the corresponding concentration (0.29 and 1.46 mM respectively). After 30 min incubation, inserts were removed, and the β-hex release was measured as described.

SMILES | cytotoxicity to LAD2 cells (XTT) (LAD2 cells [1]; PAMP-12 10 μM, 0.5% w/v hydrogel matrices (pure (RADA)4 or 20% w/w (RADA)4-GG-(PAMP-12)), 4 h or 24 h) | effect on LAD2 proliferation (XTT) (LAD2 cells [1]; same treatments, after 24 h incubation) | effect on LAD2 proliferation (XTT) (LAD2 cells [2]) | TPSAB1 expression level, normalized to ACTB (TPSAB1 (tryptase) mRNA) | LAD2 degranulation (β-hex release) (LAD2 cells [3]; peptide solutions, various concentrations, compared with PBS) | β-hex release (plateau) (LAD2 cells [3]; solution free peptide, 10 μM) | degranulation of LAD2 (β-hex release) (LAD2 cells [4]; 0.29 mM PAMP-12 solution in insert) | degranulation of LAD2 (β-hex release) (LAD2 cells [4]; 1.46 mM PAMP-12 solution in insert)
CC(=O)N[C@@H](CCCNC(=N)N)C(=O)N[C@@H](C)C(=O)N[C@@H](CC(=O)O)C(=O)N[C@@H](C)C(=O)N[C@@H](CCCNC(=N)N)C(=O)N[C@@H](C)C(=O)N[C@@H](CC(=O)O)C(=O)N[C@@H](C)C(=O)N[C@@H](CCCNC(=N)N)C(=O)N[C@@H](C)C(=O)N[C@@H](CC(=O)O)C(=O)N[C@@H](C)C(=O)N[C@@H](CCCNC(=N)N)C(=O)N[C@@H](C)C(=O)N[C@@H](CC(=O)O)C(=O)N[C@@H](C)C(N)=O [(RADA)4, RADARADARADARADA, reference compound] | not cytotoxic | no statistically significant effect |  |  |  |  |  | 
CC(=O)N[C@@H](Cc1ccccc1)C(=O)N[C@@H](CCCNC(=N)N)C(=O)N[C@@H](CCCCN)C(=O)N[C@@H](CCCCN)C(=O)N[C@@H](Cc1c[nH]c2ccccc12)C(=O)N[C@@H](CC(N)=O)C(=O)N[C@@H](CCCCN)C(=O)N[C@@H](Cc1c[nH]c2ccccc12)C(=O)N[C@@H](C)C(=O)N[C@@H](CC(C)C)C(=O)N[C@@H](CO)C(=O)N[C@@H](CCCNC(=N)N)C(N)=O [PAMP-12, Ac-FRKKWNKWALSR-CONH2, reference compound] |  |  | no statistically significant effect | 224.2±9.920 percentage | induced significant degranulation | ~75% | 65.4±2.6% | 69.5±1.2%
